Experimental data published in publication PMC8949075, “Evaluation of Two Novel Hydantoin Derivatives Using Reconstructed Human Skin Model Episkin^TM: Perspectives for Application as Potential Sunscreen Agents” (Molecules, 2022).

How the values were obtained:
[1] = Incubation in buffer (pH 7.4) without HLMs (spontaneous hydrolysis control); format: physicochemical; conditions: buffer pH = 7.4, no HLMs, 30 min, 37 °C
Procedure: Supernatant analysis was performed using UHPLC/MS (Waters Corporation, Milford, MA, USA). Two control samples were prepared with each incubation set. The first, a mixture of a test compound and potassium phosphate buffer, and without the addition of HLMs nor the NADPH-regenerating system, was used to exclude the possibility of hydrolysis facilitated by the buffer solution. The second, a mixture of a test compound, potassium phosphate buffer and HLMs, but without the NADPH-regenerating system solution, was designed to evaluate the production of metabolites in the presence of enzymes but the absence of NADPH [14, 82]. The assays were repeated two times. The in vitro half time (t1/2) for JH3 was established from the slope of the linear regression of ln percent parent compound remaining against incubation time. Intrinsic clearance (Clint) was obtained from the equation: Clint = (volume of incubation [µL] (i.e., 250 µL)/protein in the incubation [mg] (i.e., 0.2 mg)) × 0.693/t1/2 [83, 84, 85].

[2] = tested on: Episkin^TM reconstructed human epidermis; experiment: Episkin skin permeation test (finite dose, OECD 428); format: in vitro ADME; conditions: for absorbed amount detected in the RF (of the applied dose) / amount remaining on the surface of the Episkin: 24 h exposure, 10 mg/cm^2 finite dose
Procedure: (§1) The MM was provided by the manufacturer.
(§2) The receptor fluid composition was based on the pilot experiments.
(§3) The formulations of the test compounds (JH3 and JH10) and commercial UV filters were applied onto the skin surface in the donor compartment in a net dose of 10 mg/cm^2 (finite dose application) using disposable flexible loops. To quantify the dose of the formulation applied on the top of the Episkin^TM model, the loops were weighed, filled with approximately 11 mg of formulation, and then reweighed. The difference in weight was used as the amount of formulation applied. Commercial UV filters such as BP3, 4MBC, and AVO were used as reference standards. The filters were obtained from Sigma-Aldrich, Darmstadt, Germany.
(§4) The plate with tissues was embedded with parafilm and incubated at specific time points at 32 °C. As the passive diffusion of chemicals (and therefore their skin absorption) is affected by temperature, the diffusion chamber and skin were maintained at a constant temperature close to normal skin temperature of 32 ± 1 °C [19, 23, 30, 32]. At fixed time points (0, 1, 2, 3, 4, 5, 6, and 24 h), aliquots of the receptor fluid (0.5 mL) were collected from the receptor compartment and immediately replaced with fresh fluid. After 24 h the entire receptor fluid was collected, and the skin surface was washed thoroughly with cotton buds impregnated in methanol (5 times). The tissues were removed from the inserts and both the donor and receptor compartments were washed separately with methanol. The samples were stored at −20 °C until chemical analysis.
(§5) All samples were spiked with 25 µL of pentoxifylline (PTX, Sigma-Aldrich, Darmstadt, Germany) (final concentration of 20 µM) used as an internal standard prior to extraction. The samples were analyzed using ultra high-pressure liquid chromatography coupled with mass spectrometry (UHPLC/MS; Waters Corporation, Milford, MA, USA). Quantification was based on peak area and calculated from standard calibration curves of the compound adjusted by the internal standard area. The assay was in agreement with the Organization for Economic Co-operation and Development (OECD) guideline 428 [19].

[3] = as above; format: in vitro ADME, human; conditions: human; 24 h exposure, 10 mg/cm^2 finite dose, 2% formulation; read-out: recovery in the epidermis (of the applied dose)
Procedure: as §1, §2, §3, §4, §5

[4] = tested on: selected human skin cells; design: method as in PMID 31238526; conditions: cited from earlier work
[5] = tested on: MCF-7 breast cancer model; design: method as in PMID 31238526; conditions: cited from earlier work
[6] = tested on: Episkin^TM reconstructed human epidermis; experiment: Episkin phototoxicity test (UVA 50 J/cm^2; MTT viability, Il-1α release); format: cell-based; conditions: 0.5 and 1 mM; for phototoxic potential / viability of irradiated epidermis: UVA 50 J/cm^2; for tissue viability without UVA exposure: non-irradiated
Procedure: as §1
Compounds JH3 and JH10 (final concentrations of 0.5 and 1 mM) solubilized in ethanol (final concentration of 1% in water) were applied topically on the tissue surface. Chlorpromazine (CPZ, chlorpromazine hydrochloride, C17H19ClN2S·HCl, CAS number: 69-09-0, molecular weight: […], purity: meets USP testing specifications, Sigma-Aldrich, Darmstadt, Germany) (final concentration of 0.5 mM, based on literature data) was used as a positive control, whereas solvent alone served as a negative control.
Duplicate plates were prepared for UVA and dark (controls) exposure purposes. After the treatment period of 2 h, the excess test compound was removed from each well, and the tissues were exposed to UVA at a non-cytotoxic dose of 50 J/cm^2 ([…] at 250 W/m^2) with a solar light simulator equipped with a window glass filter and ID65 filter (Suntest CPS+, Atlas, Linsengericht, Germany). The emitted spectrum contained both UV and visible outputs with a UV cut-on of approx. 320 nm and corresponded to ID65 per ISO 10,977 [74]. The irradiance level between 320 and 400 nm was approximated by the following equation: W/m^2 (320–400 nm) = W/m^2 (300–800 nm) ÷ 11.5. In parallel, the non-irradiated treated tissues were placed in the dark under the same conditions. […] Next, cell viability was assessed using an MTT conversion test and the culture media aliquots were kept frozen (−20 °C) for Il-1α measurement (see 2.3.2. The Episkin^TM skin irritation test method section).

[7] = design: method as in PMID 31238526; conditions: cited from earlier work
[8] = CHO-K1 cytotoxicity assay (MTT); format: cell-based; conditions: Chinese hamster, concentrations ranging from 1 to 10 µM, read-out: viability of cells
Procedure: The Chinese hamster ovary CHO-K1 cell line was obtained from the American Type Culture Collection (ATCC CCL-61). The CHO-K1 cell line was cultured in a humidified incubator at 37 °C with 5% CO2, in F-12K Medium (Kaighn’s Modification of Ham’s F-12 Medium) (ATCC) supplemented with 10% fetal bovine serum (FBS; Gibco, Waltham, MA, USA) and antibiotics (1% streptomycin/penicillin salts mixture, Sigma–Aldrich, Darmstadt, Germany).
The cells were seeded at a density of 6 × 10^3 on 96-well plates. […] Test compounds and 4MBC were dissolved in DMSO (solvent, final concentration 0.1%) and ethanol (co-solvent, final concentration 1%). At the end of the incubation period, 10 µL of MTT reagent was added to each well. After 4 h incubation (37 °C, 5% CO2), the medium was discarded, and the formazan produced in the cells appeared as dark crystals in the bottom of the wells. Next, pure DMSO was added to each well. The optical density data of converted dye was measured at 570 nm (A570) on microplate reader. […] The experiment was conducted two times with three repetitions for each condition.

Structure (SMILES) | spontaneous hydrolysis in buffer [1] | absorbed amount detected in the RF (of the applied dose) ([2]; 2% formulation) [%] | amount remaining on the surface of the Episkin ([2]; 2% formulation) [%] | amount in the receptor fluid (RF) ([2]; after the first hour of exposure, 2% formulation, 10 mg/cm^2) [µg/cm^2] | recovery at 24 h, 2 % in formulation [3] [%] | cytotoxicity [4] | estrogenic activity [5] | phototoxic potential [6] | viability of irradiated epidermis [6] | tissue viability without UVA exposure [6] | photostability [7] | viability at 24 h [8] [%] | detectable amount in RF, fold lower than that of JH10 ([2]; after 24 h exposure) | detection in the receptor fluid over time ([2]; sampling 0-6 and 24 h, 2% formulation, 10 mg/cm^2)
CCOC(=O)CN1C(=O)/C(=C/c2ccc(OC)cc2)N(CC(=O)OCC)C1=O [JH10, diethyl 2,2′-((Z)-4-(4-methoxybenzylidene)-2,5-dioxoimidazolidine-1,3-diyl)diacetate] | no signs of spontaneous hydrolysis | 48 | 45 | 1 | 7 | no cytotoxicity | no estrogenic activity | absence of phototoxic potential | no significant difference | no changes in tissue viability | photostable | > 75 | – | –
CCOC(=O)CN1C(=O)/C(=C/C=C/c2ccc(OC)cc2)N(CC(=O)OCC)C1=O [JH3, diethyl 2,2′-((Z)-4-((E)-3-(4-methoxyphenyl)allylidene)-2,5-dioxoimidazolidine-1,3-diyl)diacetate] | no signs of spontaneous hydrolysis | 1 | 95 | – | 3 | no cytotoxicity | no estrogenic activity | absence of phototoxic potential | no significant difference | no changes in tissue viability | photostable | > 75 | about 28 fold | undetectable in the RF in the first six hours
